Experimental data from patent publication US20030165579A1, “Euphorbia antiquorum extract, a pharmaceutical composition containing the same and methods for treatment of cancers” (priority 2002, published 2003).

How the values were obtained:
[1] = system: Ehrlich acites tumor cell; details: Planta Med. 62, 322-5, 1996; cited from earlier work
tumors = details: chemotherapy, tumor control; cited from earlier work
COLO 205 = test: Cell proliferation assay (MTS) on COLO 205; assay type: cell-based, Human; details: for Cell Growth: positive control
Description: (§1) The ability of extract of Euphorbia antiquorum described in Example 1 to inhibit the growth of five different human tumor cell lines was tested. The activity of Doxorubicin, a currently clinically used chemotherapeutic agent, against the tumor cell lines was tested as a control.
(§2) Five human tumor cell lines COLO 205, HT-29, U-937, MOLT4 and HA22T/VGH, were tested in this example (Table 3).
(§3) All five cancer cell lines were stored in liquid nitrogen. After thawing, cells were maintained as monolayer in appropriate medium (GIBCO, USA) supplemented with 10% fetal bovine serum, sodium bicarbonate, L-glutamine (2 mM), streptomycin (100 μg/ml) and penicillin-G (100 units/ml) in a humidified incubator at 37±1° C. and 5% CO2 in air.
(§4) Exponentially growing human cancer cells were seeded in an appropriate medium in 96-well ELISA microtiter plates. The number of cells for each cell line plated in 96-well plates was determined from the growth curve obtained in MTS assay (600 to 20,000 cells depending on cell line). These plates of adherent cells were incubated overnight. Six well cultures were used for each concentration of MH801 of the invention and for negative and positive control cultures.
(§5) MH801 was dissolved in culture medium. […] Since the solution prepared in culture medium at working concentration can be used directly rather than a stock solution at 200 fold concentration in DMSO, culture medium, instead of DMSO, was used as vehicle in the present invention. Maximum concentration for this assay was 10 mg/ml. Serial ten fold dilution was used in this invention, and therefore, the concentrations were 10, 1, 0.1, 0.01 and 0.001 mg/ml. After sufficient mixing, this solution was passed through filter of 0.2 μm pore size for sterility. Filtrate was serially diluted with culture medium to desired concentrations for treatment.
(§6) After three days of culture, the viable cells were counted by changing the culture medium containing a tetrazolium compound
(§7) (3-4,5-dimethylthiazol-2-yl)-5(3-carboxymethoxyphenyl)-2-(4-sulfophenyl)-2H-tetrazolium, inner salt and an electron coupling reagent to measure mitochondrial enzyme activity. The absorbance at […] was measured after 2 hours to 4 hours reaction time. Cell growth % is calculated using the following equations: [formula]
(§8) Doxourbicin was used as positive control for assay system evaluation and was prepared in dimethyl sulfoxide (Merck Art. 2931, Germany) as stock solution to be added to culture medium.

HT-29 = test: Cell proliferation assay (MTS) on HT-29; assay type: cell-based, Human; details: for Cell Growth: positive control
Description: as §1, §2, §3, §4
as §5, with “After sufficient mixing, this solution was passed through filter of 0.2 μm pore size for sterility. Filtrate was serially diluted with culture medium to desired concentrations for treatment.” left out
as §6
as §7, with “[formula] […]” for “[formula]”

U-937 = test: Cell proliferation assay (MTS) on U-937; assay type: cell-based, Human; details: for Cell Growth: positive control
Description: as §1, §2, §3, §4, §5, §6, §7, §8

HA22T/VGH = test: Cell proliferation assay (MTS) on HA22T/VGH; assay type: cell-based, Human; details: positive control
Description: as §1, §2, §3, §4, §5, §6, §7, §8

MOLT 4 = test: Cell proliferation assay (MTS) on MOLT 4; assay type: cell-based, Human; details: for Cell Growth: positive control
Description: as §1, §2, §3, §4, §5, §6, §7, §8

hepatoma = details: cited from earlier work
[2] = system: P-388 lymphocytic leukemia; details: mice; cited from earlier work

## 9,19-cycloart-23-ene-3 β,24-diol
[1]
  inhibitory activity against Ehrlich acites tumor cell: significant inhibitory activity

## COc1cccc2c1C(=O)c1c(O)c3c(c(O)c1C2=O)C[C@@](O)(C(=O)CO)C[C@@H]3O[C@H]1C[C@H](N)[C@H](O)[C@H](C)O1 [Doxorubicin]
tumors
  remission effect: 15-23%
COLO 205; COLO 205, 0.058 μg/ml
  Cell Growth: 63.2%
COLO 205; COLO 205, 0.58 μg/ml
  Cell Growth: 33.8%
COLO 205; COLO 205, 5.8 μg/ml
  Cell Growth: 8.23%
COLO 205; COLO 205, positive control
  antiproliferative effect: very strong antiproliferative effect
HT-29; HT-29, 1.74 μg/ml
  Cell Growth: 35%
HT-29; HT-29, 3.48 μg/ml
  Cell Growth: 15.9%
HT-29; HT-29, positive control
  antiproliferative effect: very strong antiproliferative effect
U-937; U-937, 0.0058 μg/ml
  Cell Growth: 100.5%
U-937; U-937, 0.058 μg/ml
  Cell Growth: 80.9%
U-937; U-937, 0.58 μg/ml
  Cell Growth: 3.7%
U-937; U-937, 5.8 μg/ml
  Cell Growth: 1.6%
U-937; U-937, positive control
  antiproliferative effect: very strong antiproliferative effect
HA22T/VGH; 0.0058 μg/ml
  Cell Growth: 103%
HA22T/VGH; 0.058 μg/ml
  Cell Growth: 81.53%
HA22T/VGH; 0.58 μg/ml
  Cell Growth: 38.8%
HA22T/VGH; 5.8 μg/ml
  Cell Growth: 14.4%
HA22T/VGH
  antiproliferative effect: very strong antiproliferative effect
MOLT 4; MOLT 4, 0.0058 μg/ml
  Cell Growth: 71.2%
MOLT 4; MOLT 4, 0.058 μg/ml
  Cell Growth: 0%
MOLT 4; MOLT 4, 0.58 μg/ml
  Cell Growth: 0%
MOLT 4; MOLT 4, 5.8 μg/ml
  Cell Growth: 0%
MOLT 4; MOLT 4, positive control
  antiproliferative effect: very strong antiproliferative effect

## O=c1[nH]cc(F)c(=O)[nH]1 [5-FU]
hepatoma; 62 hepatoma patients, hepatic intra-arterial infusion
  patients responded to the medicine: 48%
hepatoma; hepatoma patients who did not respond
  survival, non-responders: 1.8 months
hepatoma; hepatoma patients who responded
  survival in average, responders: 6.9 months

## CC1=C[C@]23C(=O)[C@@H](C=C(COC(=O)c4ccccc4)[C@@H](O)[C@]2(O)[C@H]1OC(=O)c1ccccc1)[C@H]1[C@@H](C[C@H]3C)C1(C)C [Ingenol 3,20-debenzoate]
[2]
  antileukemic activity against P-388 lymphocytic leukemia: antileukemic activity

## C/C=C(\C)C(=O)O[C@@H]1[C@@H](C)[C@@]2(O)[C@@H](C=C(CO)C[C@]3(O)C(=O)C(C)=C[C@@H]23)[C@@H]2C(C)(C)[C@]12OC(=O)CCCCCCCCC [phorbol 12-tiglate 13-decanoate]
[2]
  antileukemic activity against P-388 lymphocytic leukemia: antileukemic activity

## CCCCCCCCCCCCCCCC(=O)OCC1=C[C@@H]2C(=O)[C@]3(C=C(C)[C@H](OC(=O)C(C)C(C)C)[C@@]3(O)[C@@H]1O)[C@H](C)C[C@]1(OC(=O)CCCCCCCCCCC)[C@H]2C1(C)C (stereo partly shown) [13-hydroxyingenol-3-(2,3-dimethylbutanoate)-13-dodecanoate-20-hexadecanoate]
[2]
  antileukemic activity against P-388 lymphocytic leukemia: antileukemic effect

## CCCCCCCCCCCCCCCC(=O)OC[C@@]12O[C@@H]1[C@@H]1C(=O)[C@]3(C=C(C)[C@H](OC(=O)C(C)C(C)C)[C@@]3(O)[C@@H]2O)[C@H](C)C[C@]2(OC(=O)CCCCCCCCCCC)[C@H]1C2(C)C (stereo partly shown) [6,7-epoxy-13-hydroxyingenol-3-(2,3-dimethylbutanoate)-13 dodecanoate-20-hexadecanoate]
[2]
  antileukemic activity against P-388 lymphocytic leukemia: antileukemic effect
